In patent publication US8242275B2, “Bicyclic pyrazole compounds as antibacterial agents” (Janssen Pharmaceutica NV, priority 2005, dated 2012):
Values after ≈ are worked out from the molar mass of the structure shown.

How the values were obtained:
[1] = biological target: T1, E. coli DNA gyrase (Escherichia coli, UniProt P0AES4+P0AES6); assay: DNA gyrase inhibition assay (supercoiling); type: biochemical; conditions: E. coli DNA gyrase supercoiling, visual inspection of gels; read-out: DNA Gyrase IC50 (converted)
T1 construct: purchased John Innes Enterprises Ltd. (John Innes Centre, UK)
Experimental: Inhibition of the supercoiling activity of E. coli DNA gyrase was determined using enzymes, buffers and substrates received from John Innes Enterprises Ltd. (John Innes Centre, UK). The reactions were performed according to the manufacturer's directions, with the following modifications.
DNA supercoiling reactions were carried out in a total reaction volume of 20 μL containing 250 ng of relaxed pBR322, 35 mM Tris-HCl (pH 7.5), 24 mM KCl, 4 mM MgCl2, 2 mM dithiothreitol, 1.8 mM spermidine, 1 mM ATP, 6.5% glycerol and 100 μg/mL albumin. Compounds diluted in 10% DMSO were added to the reaction mixture to reach a final concentration of 0.5% DMSO. Enzyme was diluted to […] in a solution of 50 mM Tris-HCl (pH 7.5), 100 mM KCl, 2 mM dithiothreitol, 1 mM EDTA, and 50% glycerol. Diluted enzyme (0.2 unit) was added to each reaction.
The reactions were incubated at 37° C. for 30 min. The reactions were then cooled to 0° C., followed by addition of 3 μL of 40% glycerol, 100 mM Tris-HCl (pH 7.5), 50 mM EDTA, 0.5% SDS and 0.1% bromophenol blue. Samples were separated on 1.0% agarose gels. Gels were stained with Ethidium bromide and photographed with a Stratagene Eagle Eye II.

[2] = tested on: S. aureus ATCC13709; assay: In vitro antibacterial activity (MIC assay), broth microdilution; type: cell-based; conditions: Staphylococcus aureus, ATCC13709; read-out: S. aureus ATCC13709 MIC
Experimental: (§1) Minimal inhibitory concentration (MIC) has been an indicator of in vitro antibacterial activity widely used in the art. The in vitro antibacterial activity of the compounds was determined by the broth microdilution method described by the National Committee for Clinical Laboratory Standards (NCCLS) in the NCCLS Document M7-A5, Vol. 20, No. 2, “Methods for Dilution Antimicrobial Susceptibility Test for Bacteria that Grow Aerobically—Fifth Edition”, which is incorporated herein by reference.
(§2) In this method, an aliquot of test compound from an 11-point series of 2-fold serial dilutions of compounds in 100% DMSO was added to wells in microdilution plates. The test organisms were prepared by adjusting the turbidity of actively growing broth cultures so that the final concentration of test organism after addition to wells with or without compounds was approximately 5×10^5 CFU/mL.
(§3) Following inoculation of the microdilution plates, the plates were incubated at 35° C. for 16-24 h and then scored for bacterial growth. […] The amount of growth in the wells containing the test compound was compared with the amount of growth in the growth-control wells (no test compound used) in each plate, and with the amount of growth in the wells containing control compounds (such as ciprofloxacin). Compounds of the present invention were tested against several bacterial strains. The MIC values (in μg/mL) are presented in Table 1 for Gram-negative (E. coli KL-16 (GSC strain 4245); data marked as (*) was obtained with E. coli ATCC25922) and Gram-positive bacteria (S. aureus ATCC13709; S. pneumoniae ATCC49619).

[3] = tested on: S. pneumoniae ATCC49619; assay: as above; type: cell-based; conditions: Streptococcus pneumoniae, ATCC49619; read-out: S. pneumoniae ATCC49619 MIC
Experimental: as §1, §2, §3

[4] = tested on: E. coli KL-16 (GSC strain 4245); assay: as above; type: cell-based; conditions: Escherichia coli
Experimental: as §1, §2, §3

T1 sequence (P0AES4 whole entry, one chain of several): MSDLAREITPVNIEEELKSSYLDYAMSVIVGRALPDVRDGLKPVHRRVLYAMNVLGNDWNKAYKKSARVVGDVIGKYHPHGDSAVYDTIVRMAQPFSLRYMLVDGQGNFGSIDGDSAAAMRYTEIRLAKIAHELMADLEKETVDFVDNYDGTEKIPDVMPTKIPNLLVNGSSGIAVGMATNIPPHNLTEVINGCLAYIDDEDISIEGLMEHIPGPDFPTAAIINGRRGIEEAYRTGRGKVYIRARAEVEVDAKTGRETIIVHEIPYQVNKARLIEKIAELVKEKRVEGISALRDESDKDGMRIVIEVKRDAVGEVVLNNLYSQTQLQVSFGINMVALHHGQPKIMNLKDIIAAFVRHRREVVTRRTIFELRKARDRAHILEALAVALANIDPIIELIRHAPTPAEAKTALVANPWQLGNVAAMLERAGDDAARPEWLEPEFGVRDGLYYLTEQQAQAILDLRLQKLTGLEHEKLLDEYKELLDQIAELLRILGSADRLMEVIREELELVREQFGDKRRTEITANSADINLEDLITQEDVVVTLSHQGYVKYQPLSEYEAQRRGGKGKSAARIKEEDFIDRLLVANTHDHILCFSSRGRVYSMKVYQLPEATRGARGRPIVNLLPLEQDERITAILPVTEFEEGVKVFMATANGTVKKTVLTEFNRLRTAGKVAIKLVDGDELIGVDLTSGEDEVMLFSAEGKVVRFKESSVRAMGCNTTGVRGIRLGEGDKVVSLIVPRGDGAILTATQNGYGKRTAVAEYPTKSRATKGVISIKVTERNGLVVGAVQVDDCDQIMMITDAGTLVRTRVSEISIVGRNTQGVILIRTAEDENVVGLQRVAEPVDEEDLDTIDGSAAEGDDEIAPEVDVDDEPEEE

Row | Structure (SMILES) | IC50 [1] [µM] | MIC [2] [µg/mL] | MIC [3] [µg/mL] | MIC [4] [µg/mL]
1 | COc1ccc2nccc(-n3cc4c(n3)CCC(NC(=O)c3ccc([N+](=O)[O-])cc3F)C4)c2c1 (centres unmarked) [Example 118, 2-Fluoro-N-[2-(6-methoxy-quinolin-4-yl)-4,5,6,7-tetrahydro-2H-indazol-5-yl]-4-nitro-benzamide] | > 34.7 | 4 (≈ 8.67 µM) | > 128 | > 128
2 | COc1ccc2nccc(-n3cc4c(n3)CCC(NC/C=C/c3cccnc3)C4)c2n1 (centres unmarked) [Example 47, [2-(6-Methoxy-[1,5]naphthyridin-4-yl)-4,5,6,7-tetrahydro-2H-indazol-5-yl]-(3-pyridin-3-yl-allyl)-amine] | 4.85 | 1 (≈ 2.42 µM) | 4 (≈ 9.7 µM) | 128 (≈ 310 µM)
3 | COc1ccc2nccc(-n3ncc4c3CCC(NC(=O)c3cc5c(cc3F)SCC(=O)N5)C4)c2c1 (centres unmarked) [Example 19, 7-Fluoro-3-oxo-3,4-dihydro-2H-benzo[1,4]thiazine-6-carboxylic acid [1-(6-methoxy-quinolin-4-yl)-4,5,6,7-tetrahydro-1H-indazol-5-yl]-amide] | > 63.5 | 0.5 (≈ 0.993 µM) | 8 (≈ 15.9 µM) | > 128
4 | COc1ccc2nccc(-n3cc4c(n3)CCC(NC(=O)/C=C/c3ccc(Cl)c(Cl)c3)C4)c2n1 (centres unmarked) [Example 92, 3-(3,4-Dichloro-phenyl)-N-[2-(6-methoxy-[1,5]naphthyridin-4-yl)-4,5,6,7-tetrahydro-2H-indazol-5-yl]-acrylamide] | > 32.4 | 0.5 (≈ 1.01 µM) | > 128 | > 128
5 | COc1ccc2nccc(-n3cc4c(n3)CCC(NCCCc3ccccc3)C4)c2n1 (centres unmarked) [Example 45, [2-(6-Methoxy-[1,5]naphthyridin-4-yl)-4,5,6,7-tetrahydro-2H-indazol-5-yl]-(3-phenyl-propyl)-amine] | 1.93 | 0.25 (≈ 0.605 µM) | < 0.125 | 128 (≈ 310 µM)
6 | O=C1CSc2ccc(C(=O)NC3CCc4c(cnn4-c4cc(C(F)(F)F)nc5ccccc45)C3)cc2N1 (centres unmarked) [Example 97, 3-Oxo-3,4-dihydro-2H-benzo[1,4]thiazine-6-carboxylic acid [1-(2-trifluoromethyl-quinolin-4-yl)-4,5,6,7-tetrahydro-1H-indazol-5-yl]-amide] | > 30.6 | > 128 | > 128 | > 128
7 | COc1ccc2nccc(-n3cc4c(n3)CCC(NCCOc3ccccc3)C4)c2n1 (centres unmarked) [Example 65, [2-(6-Methoxy-[1,5]naphthyridin-4-yl)-4,5,6,7-tetrahydro-2H-indazol-5-yl]-(2-phenoxy-ethyl)-amine] | 2.41 | 0.5 (≈ 1.2 µM) | 1 (≈ 2.41 µM) | > 128
8 | COc1ccc2nccc(-n3cc4c(n3)CCC(NC(=O)c3cc5cc(F)c(F)cc5[nH]3)C4)c2c1 (centres unmarked) [Example 74, 5,6-Difluoro-1H-indole-2-carboxylic acid [2-(6-methoxy-quinolin-4-yl)-4,5,6,7-tetrahydro-2H-indazol-5-yl]-amide] | 4.22 | 1 (≈ 2.11 µM) | 8 (≈ 16.9 µM) | > 128
9 | COc1ccc2nccc(-n3cc4c(n3)CCC(NCCCc3ccc(Cl)c(Cl)c3)C4)c2n1 (centres unmarked) [Example 48, [3-(3,4-Dichloro-phenyl)-propyl]-[2-(6-methoxy-[1,5]naphthyridin-4-yl)-4,5,6,7-tetrahydro-2H-indazol-5-yl]-amine] | > 66.3 | 0.25 (≈ 0.518 µM) | 1 (≈ 2.07 µM) | 32 (≈ 66.3 µM)
10 | COc1ccc2nccc(-n3cc4c(n3)CCC(N(CC(=O)O)Cc3ccc5c(c3)NC(=O)CS5)C4)c2n1 (centres unmarked) [Example 68, [[2-(6-Methoxy-[1,5]naphthyridin-4-yl)-4,5,6,7-tetrahydro-2H-indazol-5-yl]-(3-oxo-3,4-dihydro-2H-benzo[1,4]thiazin-6-ylmethyl)-amino]-acetic acid] | 1.88 | 8 (≈ 15.1 µM) | 8 (≈ 15.1 µM) | > 128
11 | COc1ccc2nccc(-n3cc4c(n3)CCC(NCC(=O)Nc3ccc(C)cc3)C4)c2n1 (centres unmarked) [Example 60, 2-[2-(6-Methoxy-[1,5]naphthyridin-4-yl)-4,5,6,7-tetrahydro-2H-indazol-5-ylamino]-N-p-tolyl-acetamide] | > 36.2 | 1 (≈ 2.26 µM) | 8 (≈ 18.1 µM) | > 128
12 | O=C1CSc2ccc(CNC3CCc4c(cnn4-c4cc(C(F)(F)F)nc5ccccc45)C3)cc2N1 (centres unmarked) [Example 139, 6-{[1-(2-Trifluoromethyl-quinolin-4-yl)-4,5,6,7-tetrahydro-1H-indazol-5-ylamino]-methyl}-4H-benzo[1,4]thiazin-3-one] | > 31.4 | 8 (≈ 15.7 µM) | 32 (≈ 62.8 µM) | > 128
13 | CCN(CC)c1ccc(CNC2CCc3nn(-c4ccnc5ccc(OC)nc45)cc3C2)cc1 (centres unmarked) [Example 85, (4-Diethylamino-benzyl)-[2-(6-methoxy-[1,5]naphthyridin-4-yl)-4,5,6,7-tetrahydro-2H-indazol-5-yl]-amine] | 4.38 | 8 (≈ 17.5 µM) | 8 (≈ 17.5 µM) | 64 (≈ 140 µM)
14 | COc1ccc2nccc(-n3cc4c(n3)CCC(NC(=O)/C=C/c3ccc(Cl)cc3)C4)c2n1 (centres unmarked) [Example 90, 3-(4-Chloro-phenyl)-N-[2-(6-methoxy-[1,5]naphthyridin-4-yl)-4,5,6,7-tetrahydro-2H-indazol-5-yl]-acrylamide] | > 34.8 | 0.5 (≈ 1.09 µM) | > 128 | > 128
15 | COc1ccc2nccc(-n3cc4c(n3)CCC(NC(=O)c3cc5ccccc5o3)C4)c2c1 (centres unmarked) [Example 25, Benzofuran-2-carboxylic acid [2-(6-methoxy-quinolin-4-yl)-4,5,6,7-tetrahydro-2H-indazol-5-yl]-amide] | > 36.5 | 1 (≈ 2.28 µM) | 8 (≈ 18.2 µM) | > 128
16 | COc1ccc2nccc(-n3cc4c(n3)CCC(N(CC(=O)OC(C)(C)C)Cc3ccc5c(c3)NC(=O)CS5)C4)c2n1 (centres unmarked) [Example 67, [[2-(6-Methoxy-[1,5]naphthyridin-4-yl)-4,5,6,7-tetrahydro-2H-indazol-5-yl]-(3-oxo-3,4-dihydro-2H-benzo[1,4]thiazin-6-ylmethyl)-amino]-acetic acid tert-butyl ester] | > 13.6 | 4 (≈ 6.82 µM) | 64 (≈ 109 µM) | > 128
17 | COc1ccc2nccc(-n3cc4c(n3)CCC(NC(=O)c3ccc(C)c([N+](=O)[O-])c3)C4)c2c1 (centres unmarked) [Example 111, N-[2-(6-Methoxy-quinolin-4-yl)-4,5,6,7-tetrahydro-2H-indazol-5-yl]-4-methyl-3-nitro-benzamide] | > 35 | 0.25 (≈ 0.546 µM) | 4 (≈ 8.74 µM) | > 128
18 | COc1ccc2nccc(-n3cc4c(n3)CCC(NC(=O)c3cc5c(cc3Cl)SCC(=O)N5)C4)c2c1 (centres unmarked) [Example 20, 7-Chloro-3-oxo-3,4-dihydro-2H-benzo[1,4]thiazine-6-carboxylic acid [2-(6-methoxy-quinolin-4-yl)-4,5,6,7-tetrahydro-2H-indazol-5-yl]-amide] | 0.962 | < 0.125 | 2 (≈ 3.85 µM) | 2 (≈ 3.85 µM)
19 | COc1ccc2nccc(-n3cc4c(n3)CCC(NC(=O)c3cccnc3Cl)C4)c2c1 (centres unmarked) [Example 78, 2-Chloro-N-[2-(6-methoxy-quinolin-4-yl)-4,5,6,7-tetrahydro-2H-indazol-5-yl]-nicotinamide] | > 36.9 | 16 (≈ 36.9 µM) | > 128 | > 128
20 | COc1ccc2nccc(-n3cc4c(n3)CCC(NC(=O)/C=C/c3cc(F)cc(F)c3)C4)c2n1 (centres unmarked) [Example 11, 3-(3,5-Difluoro-phenyl)-N-[2-(6-methoxy-[1,5]naphthyridin-4-yl)-4,5,6,7-tetrahydro-2H-indazol-5-yl]-acrylamide] | 4.33 | < 0.125 | 16 (≈ 34.7 µM) | > 128
